Experimental data: PubChem BioAssay AID1963841 (Molecular Pharmacology Branch, DTP, NCI, 2024)

Test system: 439559-082-T-J2-PDC spheroid viability
Experiment: Anticancer human tumor 439559-082-T-J2-PDC patient-derived colon adenocarcinoma cell line growth inhibition [POLQ]
Conditions: spheroids with HUVEC and MSC; for IC50: curve of first compound; for viability, T/C: stronger effect = lower value
Procedure: Multicellular complex tumor spheroid response to Polymerase (POL) inhibitors (novobiocin, ART-558, RP6685) in combination with a variety of drugs and investigational agents in selected tumor cell lines
The POL inhibitors (novobiocin, ART-558, and RP6685) were evaluated both individually and in combination with standard of care and investigational anticancer small molecules within a complex spheroid model of solid tumors. . Complex spheroids include a stromal component modeled by human endothelial cells (HUVEC) and fibroblasts modeled by human mesenchymal stem cells (MSCs). The concentration ranges selected for each drug and investigational agent were based upon clinically achievable concentrations if the clinical Cmax of the agent was known.
Compounds. The drugs and investigational agents: novobiocin (NSC847541), ART-558 (NSC835418), RP-6685 (NSC848927), peposertib (NSC802822), ceralasertib (NSC780249), elimusertib (NSC800525), camonsertib (NSC841442), AZD-1390 (NSC803789), olaparib (NSC753686), talazoparib (NSC767125), rucaparib (NSC756644), sotorasib (NSC818433), MRTX-1133 (NSC836407), SN-38 (NSC673596), topotecan (NSC609699), epotoside (NSC141540), doxorubicin (NSC123127), gemcitabine (NSC613327), 5-fluorouracil (NSC19893), paclitaxel (NSC125973), vemurafenib (NSC761431), MSA-2 (NSC828583), SN-011 (NSC837082), adavosertib (NSC754352), prexasertib (NSC758257), carboplatin (NSC241240) and oxaliplatin (NSC266046), were obtained from the National Cancer Institute (NCI) Developmental Therapeutics Program Chemical Repository (21). The FDA-approved anticancer drug set is available from the Developmental Therapeutics Program at https://dtp.cancer.gov/organization/dscb/obtaining/. […] The stock solutions were prepared in dimethyl sulfoxide (DMSO, Sigma-Aldrich, St. Louis, MO, cat. D2650), except for the platinum compounds which were prepared in saline (Quality Biological, Gaithersburg, MD, cat. 114-055-101), at 800-fold the tested concentration and stored at -70 degrees C prior to their use. All drugs and investigational agents were tested over a range starting from a high concentration at or near the clinical Cmax and decreasing in half-log increments. If the clinical Cmax for an agent had not been determined, the highest concentration tested was 10 microM, except for SN-38, which was tested at a high concentration of 1 microM.
Cell Culture. All cells were maintained in an incubator at 37 degrees C and 5% CO2 with 95% humidity. The PDC lines were cultured according to standard operating procedures established by the NCI PDMR (https://pdmr.cancer.gov). Table 3 of the manuscript, lists the cell lines along with the number of the three cell types plated to form the mct-spheroids and media for tumor cell growth. After thawing, all PDC lines, except 997537-175-T-J1-PDC and 415267-285-R-J2-PDC, were cultured in Matrigel-coated flasks prepared with a working solution of 1X Ham's F-12 nutrient mix, without supplementation (Thermo Fisher Scientific, cat. 11765054), 100 U/mL penicillin-streptomycin (Thermo Fisher Scientific, cat. 15140122), and 2.5% Matrigel (Corning Inc., Corning, NY, cat. 354248) for the first three passages. The two PDC lines 997537-175-T-J1-PDC and 415267-285-R-J2-PDC were cultured on uncoated flasks. The 857933-349-R-J2-PDC line was cultured in 6C/Colon 1B media containing advanced DMEM/F-12 (Thermo Fisher Scientific, cat. 12634028), 10 mM HEPES (Thermo Fisher Scientific, cat. 15630080), 1X GlutaMAX supplement (Thermo Fisher Scientific, cat. 35050061), 0.1 mg/mL primocin (InvivoGen, San Diego, CA, cat. ant-pm-2), 10% defined fetal bovine serum, heat inactivated (HyClone Laboratories Inc., Logan, UT, cat. SH30070.03HI), 50% L-WRN conditioned media (ATCC, cat. CRL-3276), 1.25 mM N-Acetyl-L-cysteine (Sigma-Aldrich, cat. A9165), 10 mM nicotinamide (Sigma-Aldrich, cat. N0636), 1X B-27 supplement (Thermo Fisher Scientific, cat. 17504044), 1X N-2 supplement (Thermo Fisher Scientific, cat. […]

[1] = second compound 0.0316 µM, first compound 0.0316 µM
[2] = second compound 0.0316 µM, first compound 0.1 µM
[3] = second compound 0.1 µM, first compound 0.0316 µM
[4] = second compound 0.1 µM, first compound 0.1 µM
[5] = second compound 0.316 µM, first compound 0.0316 µM
[6] = second compound 0.316 µM, first compound 0.1 µM
[7] = second compound 1 µM, first compound 0.0316 µM
[8] = second compound 1 µM, first compound 0.1 µM
[9] = second compound 3.16 µM, first compound 0.0316 µM
[10] = second compound 3.16 µM, first compound 0.1 µM
[11] = second compound 10 µM, first compound 0.0316 µM
[12] = second compound 10 µM, first compound 0.1 µM
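Also: spheroids exposed to compounds for seven days before readout.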
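For viability, T/C in this document: 100% = DMSO vehicle control viability.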

## CC[C@@]1(O)C(=O)OCc2c1cc1n(c2=O)Cc2cc3c(CN(C)C)c(O)ccc3nc2-1 + COC1C(OC(N)=O)C(O)C(Oc2ccc3c(O)c(NC(=O)c4ccc(O)c(CC=C(C)C)c4)c(=O)oc3c2C)OC1(C)C
Second compound 0.0316 µM
  IC50: > 0.1 µM
Second compound 0.1 µM
  IC50: > 0.1 µM
Second compound 0.316 µM
  IC50: > 0.1 µM
Second compound 1 µM
  IC50: > 0.1 µM
Second compound 3.16 µM
  IC50: > 0.1 µM
Second compound 10 µM
  IC50: > 0.1 µM
Second compound 0.0316 µM, first compound 0.000316 µM
  viability, T/C: 99%
Second compound 0.0316 µM, first compound 0.001 µM
  viability, T/C: 100%
Second compound 0.0316 µM, first compound 0.00316 µM
  viability, T/C: 92.3%
Second compound 0.0316 µM, first compound 0.01 µM
  viability, T/C: 96.1%
[1]
  viability, T/C: 89.5%
[2]
  viability, T/C: 74.2%
Second compound 0.1 µM, first compound 0.000316 µM
  viability, T/C: 99%
Second compound 0.1 µM, first compound 0.001 µM
  viability, T/C: 98.5%
Second compound 0.1 µM, first compound 0.00316 µM
  viability, T/C: 101%
Second compound 0.1 µM, first compound 0.01 µM
  viability, T/C: 101%
[3]
  viability, T/C: 87.7%
[4]
  viability, T/C: 79.2%
Second compound 0.316 µM, first compound 0.000316 µM
  viability, T/C: 97.3%
Second compound 0.316 µM, first compound 0.001 µM
  viability, T/C: 99.5%
Second compound 0.316 µM, first compound 0.00316 µM
  viability, T/C: 105%
Second compound 0.316 µM, first compound 0.01 µM
  viability, T/C: 93.7%
[5]
  viability, T/C: 92.3%
[6]
  viability, T/C: 79.1%
Second compound 1 µM, first compound 0.000316 µM
  viability, T/C: 105%
Second compound 1 µM, first compound 0.001 µM
  viability, T/C: 115%
Second compound 1 µM, first compound 0.00316 µM
  viability, T/C: 104%
Second compound 1 µM, first compound 0.01 µM
  viability, T/C: 97.5%
[7]
  viability, T/C: 94.2%
[8]
  viability, T/C: 82.5%
Second compound 3.16 µM, first compound 0.000316 µM
  viability, T/C: 100%
Second compound 3.16 µM, first compound 0.001 µM
  viability, T/C: 99.8%
Second compound 3.16 µM, first compound 0.00316 µM
  viability, T/C: 105%
Second compound 3.16 µM, first compound 0.01 µM
  viability, T/C: 92.6%
[9]
  viability, T/C: 94.4%
[10]
  viability, T/C: 74.7%
Second compound 10 µM, first compound 0.000316 µM
  viability, T/C: 105%
Second compound 10 µM, first compound 0.001 µM
  viability, T/C: 101%
Second compound 10 µM, first compound 0.00316 µM
  viability, T/C: 94.5%
Second compound 10 µM, first compound 0.01 µM
  viability, T/C: 100%
[11]
  viability, T/C: 91.3%
[12]
  viability, T/C: 77.6%

## O=C(c1cc(Cc2n[nH]c(=O)c3ccccc23)ccc1F)N1CCN(C(=O)C2CC2)CC1 + COC1C(OC(N)=O)C(O)C(Oc2ccc3c(O)c(NC(=O)c4ccc(O)c(CC=C(C)C)c4)c(=O)oc3c2C)OC1(C)C
Second compound 0.0316 µM
  IC50: > 10 µM
Second compound 0.1 µM
  IC50: > 10 µM
Second compound 0.316 µM
  IC50: > 10 µM
Second compound 1 µM
  IC50: > 10 µM
Second compound 3.16 µM
  IC50: > 10 µM
Second compound 10 µM
  IC50: > 10 µM
[1]
  viability, T/C: 101%
[2]
  viability, T/C: 106%
Second compound 0.0316 µM, first compound 0.316 µM
  viability, T/C: 94.4%
Second compound 0.0316 µM, first compound 1 µM
  viability, T/C: 100%
Second compound 0.0316 µM, first compound 3.16 µM
  viability, T/C: 106%
Second compound 0.0316 µM, first compound 10 µM
  viability, T/C: 97.4%
[3]
  viability, T/C: 105%
[4]
  viability, T/C: 102%
Second compound 0.1 µM, first compound 0.316 µM
  viability, T/C: 100%
Second compound 0.1 µM, first compound 1 µM
  viability, T/C: 96.4%
Second compound 0.1 µM, first compound 3.16 µM
  viability, T/C: 105%
Second compound 0.1 µM, first compound 10 µM
  viability, T/C: 98.1%
[5]
  viability, T/C: 102%
[6]
  viability, T/C: 104%
Second compound 0.316 µM, first compound 0.316 µM
  viability, T/C: 98.9%
Second compound 0.316 µM, first compound 1 µM
  viability, T/C: 92.9%
Second compound 0.316 µM, first compound 3.16 µM
  viability, T/C: 107%
Second compound 0.316 µM, first compound 10 µM
  viability, T/C: 97.8%
[7]
  viability, T/C: 108%
[8]
  viability, T/C: 102%
Second compound 1 µM, first compound 0.316 µM
  viability, T/C: 100%
Second compound 1 µM, first compound 1 µM
  viability, T/C: 106%
Second compound 1 µM, first compound 3.16 µM
  viability, T/C: 107%
Second compound 1 µM, first compound 10 µM
  viability, T/C: 100%
[9]
  viability, T/C: 107%
[10]
  viability, T/C: 109%
Second compound 3.16 µM, first compound 0.316 µM
  viability, T/C: 94.9%
Second compound 3.16 µM, first compound 1 µM
  viability, T/C: 97%
Second compound 3.16 µM, first compound 3.16 µM
  viability, T/C: 105%
Second compound 3.16 µM, first compound 10 µM
  viability, T/C: 92.1%
[11]
  viability, T/C: 97.7%
[12]
  viability, T/C: 99.3%
Second compound 10 µM, first compound 0.316 µM
  viability, T/C: 102%
Second compound 10 µM, first compound 1 µM
  viability, T/C: 102%
Second compound 10 µM, first compound 3.16 µM
  viability, T/C: 116%
Second compound 10 µM, first compound 10 µM
  viability, T/C: 91.4%
